Laboratory results as given in ChEMBL document CHEMBL1201862, “PubChem BioAssay data set” (2004).
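Cultured in 96-well plates, cells were exposed to test compound for 48 hours across five concentrations. GI50 = concentration required for 50% inhibition of growth.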 Activity calls are given as the source filed them. Cut-off read from the data, not from the text of the source: active = GI50 up to about 1.1 µM and inactive = higher.

Experiments:
Experiment in all cases: NCI tumour cell line growth inhibition, 48 h
OVCAR-8 = test system: OVCAR-8
T47D = test system: T47D
SK-OV-3 = test system: SK-OV-3
SF-295 = test system: SF-295
CAKI-1 = test system: CAKI-1
A498 = test system: A498
SNB-75 = test system: SNB-75
OVCAR-4 = test system: OVCAR-4
Malme-3M = test system: Malme-3M
SF-539 = test system: SF-539
UACC-62 = test system: UACC-62
KM12 = test system: KM12
MCF7 = test system: MCF7
K562 = test system: K562
OVCAR-3 = test system: OVCAR-3
ACHN = test system: ACHN
SK-MEL-28 = test system: SK-MEL-28
SK-MEL-5 = test system: SK-MEL-5
HCT-116 = test system: HCT-116
HT-29 = test system: HT-29

Row | Compound | GI50 (OVCAR-8) | GI50 (T47D) | GI50 (SK-OV-3) | GI50 (SF-295) | GI50 (CAKI-1) | GI50 (A498) | GI50 (SNB-75) | GI50 (OVCAR-4) | GI50 (Malme-3M) | GI50 (SF-539) | GI50 (UACC-62) | GI50 (KM12) | GI50 (MCF7) | GI50 (K562) | GI50 (OVCAR-3) | GI50 (ACHN) | GI50 (SK-MEL-28) | GI50 (SK-MEL-5) | GI50 (HCT-116) | GI50 (HT-29)
1 | Cc1nc(O)c2c3c(sc2n1)CCCC3 | > 100 µM (inactive) | > 100 µM (inactive) | > 100 µM (inactive) | > 100 µM (inactive) | > 100 µM (inactive) | > 100 µM (inactive) | > 100 µM (inactive) | > 100 µM (inactive) | > 100 µM (inactive) | 56.8 µM (inactive) | 58.2 µM (inactive) | > 100 µM (inactive) | 41.4 µM (inactive) | 96.6 µM (inactive) | > 100 µM (inactive) | 54.5 µM (inactive) | > 100 µM (inactive) | > 100 µM (inactive) | 36.7 µM (inactive) | 54.7 µM (inactive)
2 | Nc1ccc(C(=O)CC(N)C(=O)O)cc1O (stereo not drawn) | > 100 µM (inactive) | > 100 µM (inactive) | 31.9 µM (inactive) | > 100 µM (inactive) | > 100 µM (inactive) | > 100 µM (inactive) | > 100 µM (inactive) | > 100 µM (inactive) | > 100 µM (inactive) | > 100 µM (inactive) | > 100 µM (inactive) | > 100 µM (inactive) | > 100 µM (inactive) | > 100 µM (inactive) | > 100 µM (inactive) | > 100 µM (inactive) | > 100 µM (inactive) | > 100 µM (inactive) | > 100 µM (inactive) | > 100 µM (inactive)
3 | O=CNc1ccccc1OCCOc1ccccc1NC=O | > 100 µM (inactive) | > 100 µM (inactive) | > 100 µM (inactive) | > 100 µM (inactive) | > 100 µM (inactive) | > 100 µM (inactive) | > 100 µM (inactive) | > 100 µM (inactive) | > 100 µM (inactive) | > 100 µM (inactive) | > 100 µM (inactive) | > 100 µM (inactive) | > 100 µM (inactive) | > 100 µM (inactive) | > 100 µM (inactive) | > 100 µM (inactive) | > 100 µM (inactive) | > 100 µM (inactive) | > 100 µM (inactive) | > 100 µM (inactive)
4 | OC(CC(c1ccccc1)c1ccc(Cl)cc1)c1ccc(Cl)cc1 (stereo not drawn) | 36.8 µM (inactive) | 32.6 µM (inactive) | 36.1 µM (inactive) | 34 µM (inactive) | 27.8 µM (inactive) | 25.8 µM (inactive) | 29.4 µM (inactive) | 31.3 µM (inactive) | 25.5 µM (inactive) | 21.4 µM (inactive) | 30.3 µM (inactive) | 30.8 µM (inactive) | 28.4 µM (inactive) | 32.4 µM (inactive) | 33.6 µM (inactive) | 27.1 µM (inactive) | 51.6 µM (inactive) | 32 µM (inactive) | 31.3 µM (inactive) | 35.6 µM (inactive)
5 | COc1ccc2nc3ccccc3c(NCCCCN(CCCl)CCCl)c2c1 | 0.0218 µM (active) | 1.26 µM (inactive) | 1.22 µM (inactive) | 0.0863 µM (active) | 0.0253 µM (active) | 0.109 µM (active) | 0.197 µM (active) | 0.148 µM (active) | 0.112 µM (active) | 0.136 µM (active) | 0.245 µM (active) | 0.128 µM (active) | 0.202 µM (active) | 0.0376 µM (active) | 0.118 µM (active) | 0.041 µM (active) | 0.752 µM (active) | 0.292 µM (active) | 0.0733 µM (active) | 0.043 µM (active)
6 | CC1CCC2(O)C3(C)CC4(O)OC2(C1O)C1(O)C3(O)C(OC(=O)c2ccc[nH]2)C(O)(C(C)C)C41C (stereo not drawn) | > 100 µM (inactive) | > 100 µM (inactive) | > 100 µM (inactive) | > 100 µM (inactive) | > 100 µM (inactive) | > 100 µM (inactive) | > 100 µM (inactive) | > 100 µM (inactive) | > 100 µM (inactive) | > 100 µM (inactive) | > 100 µM (inactive) | > 100 µM (inactive) | > 100 µM (inactive) | > 20.9 µM (inactive) | > 100 µM (inactive) | > 100 µM (inactive) | > 100 µM (inactive) | > 100 µM (inactive) | > 100 µM (inactive) | > 100 µM (inactive)
7 | O=C(C[C@@H]1NCCC[C@H]1O)Cn1cnc2cc(Br)c(Cl)cc2c1=O | < 0.0117 µM (active) | 0.0246 µM (active) | < 0.0118 µM (active) | 0.024 µM (active) | 0.0583 µM (active) | 0.0327 µM (active) | 0.0403 µM (active) | 0.0186 µM (active) | 0.0318 µM (active) | 0.023 µM (active) | – | 0.0171 µM (active) | < 0.01 µM (active) | 0.0216 µM (active) | < 0.0176 µM (active) | 0.0233 µM (active) | 0.0274 µM (active) | 0.0153 µM (active) | 0.023 µM (active) | 0.022 µM (active)
8 | COc1ccc(C2=NN(C(=N)S)C(c3ccccc3)C2)cc1 (stereo not drawn) | 39.7 µM (inactive) | 29.9 µM (inactive) | 46.6 µM (inactive) | 30.3 µM (inactive) | 40.6 µM (inactive) | 22.8 µM (inactive) | 29 µM (inactive) | 30.3 µM (inactive) | 30.5 µM (inactive) | 61.5 µM (inactive) | 35.3 µM (inactive) | 35.7 µM (inactive) | 22.5 µM (inactive) | 30.1 µM (inactive) | 35.6 µM (inactive) | 36.9 µM (inactive) | 91 µM (inactive) | 16.7 µM (inactive) | 31.5 µM (inactive) | 38.9 µM (inactive)
9 | c1ccc2c(c1)-c1ccccc1C2NC1=NCCO1 | 20.8 µM (inactive) | 39.4 µM (inactive) | 31.4 µM (inactive) | 31.4 µM (inactive) | 28.5 µM (inactive) | 18.2 µM (inactive) | 15.4 µM (inactive) | 25.2 µM (inactive) | 13.1 µM (inactive) | 21.7 µM (inactive) | 20.5 µM (inactive) | 14.2 µM (inactive) | 22.5 µM (inactive) | 32.8 µM (inactive) | 23.1 µM (inactive) | 28.8 µM (inactive) | 24.9 µM (inactive) | 15.7 µM (inactive) | 16.7 µM (inactive) | 21.7 µM (inactive)
10 | COc1ccc(Cn2c3ccc([N+](=O)[O-])cc3c(=O)n2Cc2ccccn2)cc1 | 57.7 µM (inactive) | 18.2 µM (inactive) | > 100 µM (inactive) | > 100 µM (inactive) | > 100 µM (inactive) | > 100 µM (inactive) | 37.8 µM (inactive) | 56.1 µM (inactive) | 80.9 µM (inactive) | > 100 µM (inactive) | 43.9 µM (inactive) | 92.5 µM (inactive) | > 100 µM (inactive) | 67 µM (inactive) | > 100 µM (inactive) | 87.9 µM (inactive) | > 100 µM (inactive) | 24.9 µM (inactive) | > 100 µM (inactive) | > 100 µM (inactive)
11 | O=C(O)CCO/N=C1/C(=C2/C(=O)Nc3ccccc32)Nc2ccccc21 | 38.1 µM (inactive) | 13.3 µM (inactive) | 2.98 µM (inactive) | 35.1 µM (inactive) | 4.97 µM (inactive) | 5.6 µM (inactive) | 13.8 µM (inactive) | 26.2 µM (inactive) | 54.5 µM (inactive) | 38.3 µM (inactive) | 14.7 µM (inactive) | 1.16 µM (inactive) | 23.3 µM (inactive) | 36.7 µM (inactive) | 11.7 µM (inactive) | 15.2 µM (inactive) | 33.3 µM (inactive) | 13.4 µM (inactive) | 12.3 µM (inactive) | 25 µM (inactive)
12 | Cc1ccc(NC(=S)N/N=C2\C(=O)Nc3ccccc32)cc1 | > 100 µM (inactive) | > 100 µM (inactive) | > 100 µM (inactive) | 49.9 µM (inactive) | > 100 µM (inactive) | 51.6 µM (inactive) | > 100 µM (inactive) | > 100 µM (inactive) | > 100 µM (inactive) | > 100 µM (inactive) | > 100 µM (inactive) | > 100 µM (inactive) | > 100 µM (inactive) | > 100 µM (inactive) | > 100 µM (inactive) | 61.5 µM (inactive) | 4.76 µM (inactive) | 59.7 µM (inactive) | > 100 µM (inactive) | > 100 µM (inactive)
13 | CCOc1ccc2c(ccc(/C=C/c3cc(C)c4cccnc4c3O)[n+]2C)c1 | 0.301 µM (active) | 0.54 µM (active) | 1.8 µM (inactive) | 1.24 µM (inactive) | 4.29 µM (inactive) | 1.67 µM (inactive) | 2.29 µM (inactive) | 1.7 µM (inactive) | 1.94 µM (inactive) | 0.485 µM (active) | 1.53 µM (inactive) | 0.908 µM (active) | 0.115 µM (active) | 0.495 µM (active) | 0.129 µM (active) | 1.4 µM (inactive) | 0.792 µM (active) | 0.627 µM (active) | 0.317 µM (active) | 0.378 µM (active)
14 | O=C(O)CC1C(=O)OC2C3COC(=O)c4cc(O)c(O)c(O)c4-c4c(cc(O)c(O)c4O)C(=O)OC2C(OC(=O)c2cc(O)c(O)c4c2C1C(O)C(=O)O4)C(OC(=O)c1cc(O)c(O)c(O)c1)O3 (stereo not drawn) | 20.5 µM (inactive) | 59.8 µM (inactive) | 18.5 µM (inactive) | 27.8 µM (inactive) | 17.3 µM (inactive) | > 100 µM (inactive) | 3.35 µM (inactive) | 37.9 µM (inactive) | > 100 µM (inactive) | 52.5 µM (inactive) | – | 17 µM (inactive) | 16.9 µM (inactive) | 36.4 µM (inactive) | 18 µM (inactive) | 30.4 µM (inactive) | 95.5 µM (inactive) | > 100 µM (inactive) | 14.6 µM (inactive) | 13.6 µM (inactive)
